“And” between values parts separate entries of the source, which are not always exact repeats. Identical values can stand only once.
Assays:
Assay type in all cases: cell-based
[1] = tested on: Streptococcus pyogenes ATCC2367; experiment: Disc growth inhibition halo test (Example 2); settings: commercial disc 30 μg Km
[2] = tested on: Enterobacter aerogenes ATCC13048; experiment: Disc growth inhibition halo test (Example 2); settings: commercial disc 30 μg Km
[3] = tested on: Pseudomonas aeruginosa PAOI; experiment: Disc growth inhibition halo test (Example 2); settings: commercial disc 30 μg Km
[4] = tested on: Enterococcus faecium ISP133/04; experiment: Thick cloth growth inhibition test (Example 6); settings: commercial disc 30 μg Km; in mm
Method: (§1) This example determined qualitatively the antibacterial effect of the copper solution proposed, embedded in a matrix of thick fabric which was prepared following the procedure of the present invention. Pieces of cloth of about 2×2 cm were prepared and embedded with the product and then were deposited on a background lawn of 12 different bacteria strains.
(§2) In order to do this, it was prepared a bacterial culture of 16 hours, with the strain of interest, it was performed a 1/30 dilution of the culture with fresh medium and incubated under stirring at 37° C. until reaching the exponential growth phase (D0600 nm 0.4-0.5). It was taken an aliquot of 100 μL of the culture in exponential phase, and deposited in 4 mL of Mueller-Hinton soft agar at 0.8% (previously melted and stabilized at 50° C.). The mixture was deposited on a Petri dish with 20 mL of Mueller-Hinton agar base. Once the agar was gelled, each of the discs with different amounts of the test compound were deposited on the background lawn, and incubated at 37° C. during 48 hours.
(§3) Experiments were performed in triplicate in independently, using as negative control discs with the solvent DMSO alone and cloth without the product of study. As positive control were used commercial discs used with 30 μg of antibiotic Kanamycin (Km).

[5] = tested on: Enterococcus faecalis ATCC29212; experiment: Thick cloth growth inhibition test (Example 6); settings: commercial disc 30 μg Km; in mm
Method: as §1, §2, §3

[6] = tested on: Klebsiella pneumoniae ATCC4352; experiment: Thick cloth growth inhibition test (Example 6); settings: commercial disc 30 μg Km; in mm
Method: as §1, §2, §3

[7] = tested on: Acinetobacter baumanii UPP4 56; experiment: Thick cloth growth inhibition test (Example 6); settings: commercial disc 30 μg Km
Method: as §1, §2, §3

[8] = tested on: Staphylococcus epidermidis ATCC2S923; experiment: Thick cloth growth inhibition test (Example 6); settings: commercial disc 30 μg Km; in mm
Method: as §1, §2, §3

[9] = tested on: Escherichia coli ATCC25922; experiment: Thick cloth growth inhibition test (Example 6); settings: commercial disc 30 μg Km; in mm
Method: as §1, §2, §3

[10] = tested on: Streptococcus pyogenes ATCC2367; experiment: Thick cloth growth inhibition test (Example 6); settings: commercial disc 30 μg Km; in mm
Method: as §1, §2, §3

[11] = tested on: Staphylococcus aureus ATCC25923; experiment: Thick cloth growth inhibition test (Example 6); settings: commercial disc 30 μg Km; in mm
Method: as §1, §2, §3

[12] = tested on: Streptococcus pneumoniae ATCC14325; experiment: Thick cloth growth inhibition test (Example 6); settings: commercial disc 30 μg Km; in mm
Method: as §1, §2, §3

[13] = tested on: Citrobacter freundii ISP1949/99; experiment: Thick cloth growth inhibition test (Example 6); settings: commercial disc 30 μg Km
Method: as §1, §2, §3

[14] = tested on: Enterobacter aerogenes ATCC13048; experiment: Thick cloth growth inhibition test (Example 6); settings: commercial disc 30 μg Km; in mm
Method: as §1, §2, §3

[15] = tested on: Pseudomonas aeruginosa PAOI; experiment: Thick cloth growth inhibition test (Example 6); settings: commercial disc 30 μg Km; in mm
Method: as §1, §2, §3

[16] = tested on: Streptococcus pneumoniae ATCC14325; experiment: Disc growth inhibition halo test (Example 2); settings: commercial disc 30 μg Km
[17] = tested on: Citrobacter freundii ISP1949/99; experiment: Disc growth inhibition halo test (Example 2); settings: commercial disc 30 μg Km
[18] = tested on: Enterococcus faecalis ATCC29212; experiment: Disc growth inhibition halo test (Example 2); settings: commercial disc 30 μg Km
[19] = tested on: Staphylococcus epidermidis ATCC25923; experiment: Disc growth inhibition halo test (Example 2); settings: commercial disc 30 μg Km
[20] = tested on: Escherichia coli ATCC25922; experiment: Inhibition halos of fabrics after washing (Example 7); settings: commercial disc 30 μg Km; in mm
Method: (§4) This example established qualitatively the antibacterial activity of matrixes in thin fabric (Fabric 1) and thick fabric (Fabric 2) embedded with the product, following the procedure described herein, and after subjected to washing. In order to do this, there were taken pieces of 2×2 cm from both fabrics, cut and washed for 2 hours with stirring using commercial laundry detergent. Subsequently, the washed fabric pieces which have the new product are dried in an oven at 40° C. for 3 hours and placed on the background lawn. In order to generate the background lawn, it was prepared a bacterial culture of 16 hours, with the strain of interest, it was performed a 1/30 dilution of the culture with fresh medium and incubated under stirring at 37° C. until reaching the exponential growth phase (D0600 nm 0.4-0.5). It was taken an aliquot of 100 μL of the culture in exponential phase, and deposited in 4 mL of Mueller-Hinton soft agar at 0.8% (previously melted and stabilized at 50° C.). The mature was deposited on a Petri dish with 20 mL of Mueller-Hinton agar base. […]
(§5) Experiments were performed in triplicate and in three independent events. From the treated plates, it was measured the zone of inhibition generated by each control and fabrics embedded with the proposed compound, which is summarized in Table 7.

[21] = tested on: Staphylococcus aureus ATCC25923; experiment: as above; settings: commercial disc 30 μg Km; in mm
Method: as §4, §5

[22] = tested on: Escherichia coli ATCC25922; experiment: Disc growth inhibition halo test (Example 2); settings: commercial disc 30 μg Km
[23] = tested on: Enterococcus faecium ISP133/04; experiment: Disc growth inhibition halo test (Example 2); settings: commercial disc 30 μg Km
[24] = tested on: Staphylococcus aureus ATCC25923; experiment: Disc growth inhibition halo test (Example 2); settings: commercial disc 30 μg Km

In the case of NC[C@H]1O[C@H](O[C@H]2[C@H](O)[C@@H](O[C@H]3O[C@H](CO)[C@@H](O)[C@H](N)[C@H]3O)[C@H](N)C[C@@H]2N)[C@H](O)[C@@H](O)[C@@H]1O [Km, Kanamycin], the Growth inhibition zone [1] is reported as 5 mm and 5.0 mm, the Growth inhibition zone [2] is reported as 14 + 0.5 mm and 15 ± 0.4 mm and 16 ± 0.4 mm and 19.0 ± 0.7 mm and the Growth inhibition zone [3] is reported as 7 ± 1.0 mm and 9 ± 0.7 mm and 7 + 0.7 mm and 7.0 ± 1.4 mm. It also gave a Growth inhibition zone [4] of 11.0 ± 0.8, a Growth inhibition zone [5] of 14.0 ± 1.0 and a Growth inhibition zone [6] of 18.0 ± 1.0. It also gave a Growth inhibition zone [7] of 5 mm, a Growth inhibition zone [8] of 24.0 ± 1.0 and a Growth inhibition zone [9] of 19.0 ± 0.5. The Growth inhibition zone [10] was 6.0 ± 1.0, the Growth inhibition zone [11] was 18.0 ± 0.5 and the Growth inhibition zone [12] was 10.0 ± 0.2. The Growth inhibition zone [13] was 17.0 ± 0.3, the Growth inhibition zone [14] was 12.0 ± 0.5 and the Growth inhibition zone [15] was 7.0 ± 0.5. The Growth inhibition zone [16] was 15 ± 0.8 mm and 12.5 ± 1.2 mm and 11 ± 1 mm and 11.5 ± 0.8 mm, the Growth inhibition zone [17] was 19 ± 0.3 mm and 12 ± 0.5 mm and 15 ± 0.5 mm and 19.0 ± 0.2 mm and the Growth inhibition zone [18] was 10 mm and 15 + 0.6 mm and 15 ± 0.6 mm and 10.5 ± 0.2 mm. The Growth inhibition zone [19] was 16 + 0.5 mm and 14 + 0.7 mm and 18 ± 0.7 mm and 18.5 ± 3.5 mm, the Growth inhibition zone [20] was 20.6 ± 0.6 and the Growth inhibition zone [21] was 18.0 ± 1.4. The Growth inhibition zone [22] was 18 ± 1.8 mm and 15 ± 0.2 mm and 18 ± 0.7 mm and 20.0 ± 0.7 mm, the Growth inhibition zone [23] was 12.5 ± 1.2 mm and 9 ± 0.7 mm and 11.0 mm and the Growth inhibition zone [24] was 21 ± 2 mm and 20 ± 0.8 mm and 15 ± 0.5 mm and 19.0 mm.
